Experimental findings from patent US3965139A, “2-Chloro-N-(cyanomethyl)acetanilides” (Diamond Shamrock Corporation, priority 1974, dated 1976) are described below.

In series [1] the test system is grass species. Briefly: Greenhouse Preemergence Herbicide Test, grass species. The conditions noted are these: two weeks after treatment. The class given is in vivo. How it is done:
To illustrate the preemergence herbicidal efficiency of the N-(cyanomethyl)acetanilides of this invention, test formulations are prepared of representative compounds by mixing 20 ml of an acetone solution containing 0.125 g of the test compound with 20 ml of water containing 0.01 g of Triton X-155 surfactant. The resultant formulations contain 3125 ppm of test compound, 50% by volume of acetone and 0.025% by weight of surfactant. Appropriate lower concentrations are obtained by diluting this formulation with surfactant-acetone solution so that the concentration of adjuvants is maintained at the original levels.
Seeds of three broadleaf and three grass species are planted in soil contained in 10 × 8 × 3 inch aluminum pans filled with 1.5 inches of composted soil. The broadleaf species are pigweed (Amaranthus retroflexus), a velvetleaf (Abutilon theophrasti), and morningglory (Ipomea coccinea); the grasses are red millet (Panicum milliacem), greenfoxtail (Setaria viridis) and Japanese millet (Echinochloa frumentacea).
The pans are then sprayed so that the soil surface is uniformly covered with dilutions of the stock formulation providing dosage rates of the test compounds corresponding to 8, 4, 2, 1, 0.5, and 0.25 lb/A. Two weeks after treatment, percent control (plant kill) at each dosage rate is estimated. The lowest concentration of each compound (lb/A) found to provide 50% or greater control of the grass weeds is as follows: […]

Another series relates to Giant Foxtail. Briefly: Field Preemergence Test, light sandy soil. The class given is in vivo. The conditions noted are these: 3-4 weeks after planting. From the text:
(§1) Test plots of fertilized, light sandy soil containing 0.7% organic matter are sprayed uniformly with aqueous suspensions prepared from an emulsifiable concentrate containing 12%, by weight, of 2-chloro-N-cyanomethyl-2',6'-diethylacetanilide (the product of Example 1) diluted to provide dosage rates of the test compound corresponding to 2, 1, 0.5, and 0.25 pound per acre (lb/A). The plots are then sown with seeds of the following crop plants: sweet corn, cotton (Coker 413), and soybeans, var. Davis. Seeds of the following weed plants are planted: redroot pigweed, prickly sida, and common lambsquarter (broadleaf species); goosegrass and giant foxtail (grass species).
(§2) Three to four weeks after planting, percent control (plant kill) of the test plants is estimated, from a rating of 0 which denotes no injury to the plant up to 100 which denotes complete destruction. The % weed control exerted by 2-chloro-N-cyanomethyl-2',6'-diethylacetanilide is as follows: […]

A further series deals with Goosegrass. Briefly: Field Preemergence Test, light sandy soil. The series is classed as in vivo. The conditions noted are these: 3-4 weeks after planting.
Source text: as §1, §2

Another series deals with Prickly Sida. Briefly: Field Preemergence Test, light sandy soil. The series is classed as in vivo. The conditions noted are these: 3-4 weeks after planting.
Source text: as §1, §2

For the next series, the system named is Redroot Pigweed. Kind of series: Field Preemergence Test, light sandy soil. Particulars: 3-4 weeks after planting. The series is classed as in vivo.
Source text: as §1, §2

A further series relates to Lambsquarter. Briefly: Field Preemergence Test, light sandy soil. The class given is in vivo, common lambsquarter. Particulars: 3-4 weeks after planting.
Source text: as §1, §2

Series [2] deals with Corn. Briefly: Field Preemergence Test, phytotoxic effects on crop. The series is classed as in vivo, sweet corn. Particulars: light sandy soil; for % Crop Kill, Corn: 3-4 weeks after planting.
Source text: as §1
(§3) Three to four weeks after planting, percent control (plant kill) of the test plants is estimated, from a rating of 0 which denotes no injury to the plant up to 100 which denotes complete destruction. The % weed control exerted by 2-chloro-N-cyanomethyl-2',6'-diethylacetanilide is as follows:
(§4) Phytotoxic effects observed on the crop species is estimated with results as follows: […]

Another series deals with Cotton. The series is described as above. Particulars: light sandy soil; for % Crop Kill, Cotton: 3-4 weeks after planting. The series is classed as in vivo, cotton (Coker 413).
Source text: as §1, §3, §4

For series [3], the system named is Soybeans. Described as above. The class given is in vivo, var. Davis. Particulars: light sandy soil; for % Crop Kill, Soybeans: 3-4 weeks after planting.
Source text: as §1, §3, §4

For series [4], the system named is Corn. Briefly: Preemergence test in loam-type heavier soil, crop. The series is classed as in vivo. Particulars: for % Control of Plant Growth, Corn: about three weeks after planting, loam-type heavier soil.
Series [5] relates to Soybeans. Briefly: Preemergence test in loam-type heavier soil, crop. The series is classed as in vivo. Particulars: for % Control of Plant Growth, Soybeans: about three weeks after planting, loam-type heavier soil. From the text:
(§5) This example illustrates the performance of 2-chloro-N-cyanomethyl-2',6'-diethylacetanilide in a different type soil than employed in the previous example. For this test, test plots of a loam-type, heavier soil containing 5.5% organic matter are sprayed uniformly with formulations of the test compound providing dosage rates of 4, 2, and 1 pound per acre (lb/A). The plots are then sown to cotton and soybeans and with seeds of the broadleaf, redroot pigweed, and the grasses, Johnson grass and yellow foxtail, as indicator weed plants.
(§6) Approximately three weeks after planting, the test plots are examined and percent control of plant growth is rated from 0% to 100% as previously described.

Another series concerns Pigweed. Kind of series: Preemergence test in loam-type heavier soil, weed. The series is classed as in vivo, redroot pigweed. The conditions noted are these: about three weeks after planting.
Source text: as §5, §6

A further series deals with Johnsongrass. Briefly: Preemergence test in loam-type heavier soil, weed. The series is classed as in vivo, Johnson grass. The conditions noted are these: about three weeks after planting.
Source text: as §5, §6

The next series deals with Yellow Foxtail. Briefly: Preemergence test in loam-type heavier soil, weed. The series is classed as in vivo. The conditions noted are these: about three weeks after planting.
Source text: as §5, §6

The next series concerns grassy-type weeds. Briefly: Field Preemergence Test, light sandy soil, grasses overall. The class given is in vivo, goosegrass and giant foxtail.
Source text: as §1, §2

Series [6] relates to broadleaf species. Briefly: Field Preemergence Test, light sandy soil, broadleaf species overall. The class given is in vivo, redroot pigweed, prickly sida, common lambsquarter.
Source text: as §1, §2

In series [7] the test system is grass species. Kind of series: Preemergence test in loam-type heavier soil, grasses overall. The class given is in vivo, Johnson grass and yellow foxtail. The conditions noted are these: 1-2 lb/A; heavy soil.
Source text: as §5, §6

For series [8], the system named is broadleaf species. Briefly: Preemergence test in loam-type heavier soil, broadleaf species. The series is classed as in vivo, redroot pigweed. The conditions noted are these: 1-2 lb/A; heavy soil.
Source text: as §5, §6

On to `CCc1cccc(CC)c1N(CC#N)C(=O)CCl` [Example 1, 2-chloro-N-cyanomethyl-2',6'-diethylacetanilide], for which, in the series with grass species [1], the “Minimum Dosage Providing at Least 50% Preemergence Control of Grass Species” value worked out at 0.50 lb/A. Moreover, the “% Weed Control, Giant Foxtail” value is given as 0% in the series on Giant Foxtail (0.25 lb/A), 27% in the series with Giant Foxtail (0.5 lb/A), 65% in the series on Giant Foxtail (1 lb/A) and 82% with Giant Foxtail (2 lb/A). For the same compound, the “% Weed Control, Goosegrass” value came out at 63% with Goosegrass (0.25 lb/A), 88% with Goosegrass (0.5 lb/A), 95% in the series on Goosegrass (1 lb/A) and 99% with Goosegrass (2 lb/A). Further, the “% Weed Control, Prickly Sida” value in the series with Prickly Sida (0.25 lb/A) amounted to 0%; in the series on Prickly Sida (0.5 lb/A), 0%; with Prickly Sida (1 lb/A), 12%; in the series with Prickly Sida (2 lb/A), 40%. In addition, the “% Weed Control, Redroot Pigweed” value amounted to 0% with Redroot Pigweed (0.25 lb/A), 33% in the series on Redroot Pigweed (0.5 lb/A), 55% with Redroot Pigweed (1 lb/A) and 90% with Redroot Pigweed (2 lb/A). Besides, the “% Weed Control, Lambsquarter” value with Lambsquarter (0.25 lb/A) came to 0%; in the series with Lambsquarter (0.5 lb/A), 20%; with Lambsquarter (1 lb/A), 60%; in the series with Lambsquarter (2 lb/A), 88%. Moreover, the “% Crop Kill, Corn” value with Corn [2] (1 lb/A) and in the series with Corn [2] (2 lb/A) was 0% in each case. Besides, in the series on Corn [2] (2 lb/A), the tolerance of corn result is reported as “tolerant”. Further, the “% Crop Kill, Cotton” value in the series on Cotton (1 lb/A) is 0%; in the series on Cotton (2 lb/A), 3%. Also, the “phytotoxicity effects on cotton” value in the series on Cotton (2 lb/A) was “minimal phytotoxicity effects”. In addition, the “% Crop Kill, Soybeans” value with Soybeans [3] (1 lb/A) and in the series on Soybeans [3] (2 lb/A) was 0% throughout. In addition, the tolerance of soybeans entry in the series on Soybeans [3] (2 lb/A) is recorded as “tolerant”. The “injury to corn stand” value in the series on Corn [4] (1-2 lb/A, heavy soil) is listed as “noninjurious”. The results for the “% Control of Plant Growth, Corn” value in the series with Corn [4] (1 lb/A), with Corn [4] (2 lb/A) and in the series on Corn [4] (4 lb/A) were 0%, 0% and 10%, respectively. Also, the “injury to soybean stand” value in the series with Soybeans [5] (1-2 lb/A, heavy soil) was “noninjurious”. Also, the “% Control of Plant Growth, Soybeans” value in the series on Soybeans [5] (1 lb/A) was 0%; in the series on Soybeans [5] (2 lb/A), 0%; in the series on Soybeans [5] (4 lb/A) it was 5%. Also, the entries for the “% Control of Plant Growth, Pigweed” value in the series with Pigweed (1 lb/A), in the series with Pigweed (2 lb/A) and with Pigweed (4 lb/A) were 0%, 0% and 40%, respectively. Moreover, the “% Control of Plant Growth, Johnsongrass” value in the series on Johnsongrass (1 lb/A) turned out to be 60%; in the series on Johnsongrass (2 lb/A), 80%; in the series on Johnsongrass (4 lb/A), 80%. The “% Control of Plant Growth, Yellow Foxtail” value is recorded as 90% in the series on Yellow Foxtail (1 lb/A), 95% with Yellow Foxtail (2 lb/A) and 95% with Yellow Foxtail (4 lb/A). Further, the “control of grassy-type weeds” value with grassy-type weeds is reported as “good control”. In the series on broadleaf species [6] (1-2 lb/A), the “broadleaf weed control in a light, sandy soil” value is given as “good broadleaf weed control”. The “herbicidal activity against two of the broadleaf species” value in the series with broadleaf species [6] (2 lb/A) is given as “significant herbicidal activity”. The “selectivity for controlling the grass species” value in the series on grass species [7] is “selective for controlling the grass species”. The “activity for controlling the broadleaf species” value with broadleaf species [8] was “no activity”.
Consider `CC(C)c1cccc(C(C)C)c1N(CC#N)C(=O)CCl` [Example 12, 2-chloro-N-cyanomethyl-2',6'-diisopropylacetanilide], for which the “Minimum Dosage Providing at Least 50% Preemergence Control of Grass Species” value with grass species [1] was found to be 0.50 lb/A.
The same measure, in the same setting: with `N#CCN(C(=O)CCl)c1ccccc1Br` [Example 15, 2'-bromo-2-chloro-N-(cyanomethyl)acetanilide] the figure was 1.00 lb/A; with `COc1ccccc1N(CC#N)C(=O)CCl` [Example 13, 2-chloro-N-cyanomethyl-2'-methoxyacetanilide], 0.50 lb/A.
On the same count and under the same terms, with `N#CCN(C(=O)CCl)c1ccccc1Cl` [Example 9, 2,2'-dichloro-N-(cyanomethyl)acetanilide] the figure was 0.50 lb/A; with `CC(C)c1ccccc1N(CC#N)C(=O)CCl` [Example 11, 2-chloro-N-cyanomethyl-2'-isopropylacetanilide], 1.00 lb/A.
Same read-out and setting: with `Cc1cccc(C)c1N(CC#N)C(=O)CCl` [Example 10, 2-chloro-N-cyanomethyl-2',6'-dimethylacetanilide] the figure was 0.25 lb/A; with `CCc1ccccc1N(CC#N)C(=O)CCl` [Example 14, 2-chloro-N-cyanomethyl-2'-ethylacetanilide], 0.50 lb/A.
Regarding `Cc1cccc(N(CC#N)C(=O)CCl)c1` [Example 8, 2-chloro-N-cyanomethyl-3'-methylacetanilide], the “Minimum Dosage Providing at Least 50% Preemergence Control of Grass Species” value with grass species [1] turned out to be 0.50 lb/A.
